In PubChem BioAssay (NCI) one finds TGI and GI50 data, which are given here for 17 compounds.

Where “and” joins values, the source holds several entries; their conditions need not be identical. Equal entries are not always repeated.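 Exposure lasted 48 hours, with cells grown in 96-well plates and compounds tested at five concentrations. The concentration for 50% growth inhibition is given as GI50. Definition used: TGI = concentration required for complete inhibition of growth.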 A value given as a limit tells only on which side of the number the result lay.

One assay deals with HCC-2998 colon. Put plainly: inhibition of tumour cell growth, NCI panel, 48 h.
As for `Cc1cccc(C)c1N1C(=O)C(=O)C(c2nc3ccccc3s2)C(=Nc2cccc3c(=O)[nH][nH]c(=O)c23)C1=O` (configuration not stated), the TGI was above 100 µM.
For `[2H]c1nc(=Nc2cc(NC(=O)C=C)c(N(C)CCN(C)C)cc2OC)[nH]c(-c2cn(C([2H])([2H])[2H])c3ccccc23)c1[2H]`, the GI50 is 1.44 µM and the TGI is 2.8 µM.
On the same counts, the results for `COc1cc2nc(-c3ccc(C(F)(F)F)cc3)cc(OCCCN3CCCC3)c2cc1OC` are 2.07 µM and 10 µM.
On the same counts, the results for `COc1ccc(C(=O)c2nc3ccccc3n2CC(=O)c2ccc(Cl)cc2)cc1` are 3.94 µM and above 100 µM.
On to `COc1cc(C2c3cc4c(cc3[C@@H](Nc3ccc5c(c3)OCCO5)C3COC(=O)[C@H]23)OCO4)cc(OC)c1O` (some centres not stated), for which the TGI turned out to be 3.65 µM.
`Cn1c(=O)nc2n(-c3ccc(Cl)c(C(F)(F)F)c3)c3ccccc3nc-2c1=O` registered a TGI of 80.8 µM.
Take `OCc1ccc(N2CCOCC2)cc1Cl`: the GI50 is above 57.1 µM and the TGI is above 100 µM.
Compound `Cc1nc(-c2cccnc2)sc1C(=O)/C=C/c1cccc([N+](=O)[O-])c1` had a TGI above 100 µM.

Another assay has as its system HCT-15 colon. Put plainly: inhibition of tumour cell growth, NCI panel, 48 h.
As for `COc1ccc(F)c(F)c1C(=O)c1cnc(NC2CCN(S(C)(=O)=O)CC2)nc1N`, the GI50 was 0.484 µM and 0.361 µM; the TGI was above 100 µM.
In turn, `CC1(C)CC(=O)C(CC2C(=O)c3ccccc3C2=O)C(=O)C1` displayed a TGI above 100 µM.
As to `Nc1cc(-c2ccc(Cl)cc2)nn1-c1nnc(/C=C/c2ccco2)c(=O)[nH]1`, the GI50 was 1.38 µM and the TGI is above 49.1 µM.
In turn, `Cc1c(C)c(CC(=O)N2CC2)c(C)c(C)c1CC(=O)N1CC1` yielded a TGI above 58.2 µM.
As for `Cc1ccc(C)c(N2C(=O)C(=O)C(c3nc4ccccc4s3)C(=Nc3cccc4c(=O)[nH][nH]c(=O)c34)C2=O)c1` (configuration not stated), the TGI was above 100 µM.
As for `CCCCCCCCCCCCCCCCCCOCC(COCCOCC[N+]1(CCCCCC(=O)[O-])CCCC1)Oc1ncccn1` (configuration not stated), the TGI was 25.5 µM.
Regarding `CCOc1ccc(Nc2c3ccccc3nc3ccccc23)cc1`, the GI50 is 0.592 µM and 0.552 µM; the TGI was 3.18 µM.
Turning to `CC(C)(C)NCC(COc1ccc([N+](=O)[O-])cc1)OP(c1ccccc1)c1ccccc1` (configuration not stated), the TGI was above 100 µM.
`CCNCCNc1cc(-c2ccc(C#N)cc2)c(C#N)c2nc3ccccc3n12`: the GI50 was 2.81 µM and the TGI is 11 µM.
`Cc1cccc(C)c1N1C(=O)C(=O)C(c2nc3ccccc3s2)C(=Nc2cccc3c(=O)[nH][nH]c(=O)c23)C1=O` (configuration not stated) showed a TGI above 100 µM.
As to `[2H]c1nc(=Nc2cc(NC(=O)C=C)c(N(C)CCN(C)C)cc2OC)[nH]c(-c2cn(C([2H])([2H])[2H])c3ccccc23)c1[2H]`, the GI50 was 1.44 µM and the TGI amounted to 3.05 µM.
For `COc1cc2nc(-c3ccc(C(F)(F)F)cc3)cc(OCCCN3CCCC3)c2cc1OC`, the GI50 is 0.429 µM and the TGI was found to be 6.99 µM.
Consider `COc1ccc(C(=O)c2nc3ccccc3n2CC(=O)c2ccc(Cl)cc2)cc1`, for which the GI50 is 2 µM and the TGI was above 100 µM.
On to `COc1cc(C2c3cc4c(cc3[C@@H](Nc3ccc5c(c3)OCCO5)C3COC(=O)[C@H]23)OCO4)cc(OC)c1O` (some centres not stated), for which the TGI is 7.23 µM.
The compound `Cn1c(=O)nc2n(-c3ccc(Cl)c(C(F)(F)F)c3)c3ccccc3nc-2c1=O` registered a TGI above 100 µM.
As to `OCc1ccc(N2CCOCC2)cc1Cl`, the GI50 is above 100 µM and the TGI was above 100 µM.
The compound `Cc1nc(-c2cccnc2)sc1C(=O)/C=C/c1cccc([N+](=O)[O-])c1` had a TGI above 100 µM.

A further assay deals with HL-60(TB) leukemia. Put plainly: inhibition of tumour cell growth, NCI panel, 48 h.
As to `COc1ccc(F)c(F)c1C(=O)c1cnc(NC2CCN(S(C)(=O)=O)CC2)nc1N`, the GI50 was 0.0672 µM and the TGI came to 4.61 µM.
Compound `CC1(C)CC(=O)C(CC2C(=O)c3ccccc3C2=O)C(=O)C1` came in with a TGI above 100 µM.
With `Nc1cc(-c2ccc(Cl)cc2)nn1-c1nnc(/C=C/c2ccco2)c(=O)[nH]1`, the GI50 is 4.23 µM and the TGI was above 28.6 µM.
Compound `Cc1c(C)c(CC(=O)N2CC2)c(C)c(C)c1CC(=O)N1CC1` had a TGI of 10.3 µM.
On to `Cc1ccc(C)c(N2C(=O)C(=O)C(c3nc4ccccc4s3)C(=Nc3cccc4c(=O)[nH][nH]c(=O)c34)C2=O)c1` (configuration not stated), for which the TGI was above 100 µM.
Compound `CCCCCCCCCCCCCCCCCCOCC(COCCOCC[N+]1(CCCCCC(=O)[O-])CCCC1)Oc1ncccn1` (configuration not stated) had a TGI of 2.6 µM.
As to `CCOc1ccc(Nc2c3ccccc3nc3ccccc23)cc1`, the GI50 is 1.58 µM and 0.545 µM; the TGI is 5.15 µM and 2.54 µM.
`CC(C)(C)NCC(COc1ccc([N+](=O)[O-])cc1)OP(c1ccccc1)c1ccccc1` (configuration not stated) had a TGI of 47.3 µM.
Turning to `CCNCCNc1cc(-c2ccc(C#N)cc2)c(C#N)c2nc3ccccc3n12`, the GI50 was 1.87 µM and the TGI was 4.35 µM.
Compound `Cc1cccc(C)c1N1C(=O)C(=O)C(c2nc3ccccc3s2)C(=Nc2cccc3c(=O)[nH][nH]c(=O)c23)C1=O` (configuration not stated) returned a TGI above 100 µM.
Turning to `[2H]c1nc(=Nc2cc(NC(=O)C=C)c(N(C)CCN(C)C)cc2OC)[nH]c(-c2cn(C([2H])([2H])[2H])c3ccccc23)c1[2H]`, the GI50 was 0.848 µM and the TGI is 2.5 µM.
Take `COc1cc2nc(-c3ccc(C(F)(F)F)cc3)cc(OCCCN3CCCC3)c2cc1OC`: the GI50 was 1 µM and the TGI was 5.86 µM.
For `COc1ccc(C(=O)c2nc3ccccc3n2CC(=O)c2ccc(Cl)cc2)cc1`, in that order: 0.958 µM and 5.06 µM.
For the compound `COc1cc(C2c3cc4c(cc3[C@@H](Nc3ccc5c(c3)OCCO5)C3COC(=O)[C@H]23)OCO4)cc(OC)c1O` (some centres not stated), the TGI turned out to be 0.241 µM.
In turn, `Cn1c(=O)nc2n(-c3ccc(Cl)c(C(F)(F)F)c3)c3ccccc3nc-2c1=O` showed a TGI of 46.2 µM.
With `OCc1ccc(N2CCOCC2)cc1Cl`, the GI50 was above 100 µM and the TGI is above 100 µM.
Take `Cc1nc(-c2cccnc2)sc1C(=O)/C=C/c1cccc([N+](=O)[O-])c1`: the TGI was above 100 µM.
